Assay results from US9884823B2, “Oxime ether acetate compound, preparation method therefor and weeding application thereof” (ZHEJIANG UNIVERSITY OF TECHNOLOGY, priority 2014, dated 2018).

What follows are compounds tested on Cucumber (assay: Culture dish method (general screening)). Conditions: 100 mg/L; 7 days; root.
Format: in vivo
From the text: (§3) Culture dish method (general screening): The test targets were radish, cucumber, rape, wheat, sorghum and barnyard grass; the seeds of wheat, sorghum and radish were germinated in advance, and the uniform emerge-germinating seeds were used in the test.
`CON=C(C(=O)OC)c1ccccc1COc1cccc(-c2cccc(C)n2)c1` [Compound 85] was tested, and the “inhibition rate, Cucumber Root” value was 80%.
For `CON=C(C(=O)OC)c1ccccc1COc1cccc(-c2ncc(Cl)cc2Cl)c1` [Compound 98], the “inhibition rate, Cucumber Root” value was 50%.

Same assay, conditions: 100 mg/L; 7 days; stem
For `CON=C(C(=O)OC)c1ccccc1COc1cccc(-c2cccc(C)n2)c1` [Compound 85], the “inhibition rate, Cucumber Stem” value was 30%.
In the case of `CON=C(C(=O)OC)c1ccccc1COc1cccc(-c2ncc(Cl)cc2Cl)c1` [Compound 98], the “inhibition rate, Cucumber Stem” value is reported as 80%.

The compounds below were run on Mustard (assay: not given). Conditions: Postemergence spraying; 150 g a.i./ha; 30 days; Table 9.
With `CON=C(C(=O)OC)c1ccccc1COc1cccc(-c2cccc(C)n2)c1` [Compound 85] the “efficiency, Mustard” value was 30%.
For `CON=C(C(=O)OC)c1ccccc1COc1cccc(-c2ncc(Cl)cc2Cl)c1` [Compound 98], the “efficiency, Mustard” value was 100%.

Same assay, conditions: Pre-emergence soil treatment; 150 g a.i./ha; 30 days; Table 9
With `CON=C(C(=O)OC)c1ccccc1COc1cccc(-c2cccc(C)n2)c1` [Compound 85] the “efficiency, Mustard” value was 20%.
In the case of `CON=C(C(=O)OC)c1ccccc1COc1cccc(-c2ncc(Cl)cc2Cl)c1` [Compound 98], the “efficiency, Mustard” value is reported as 50%.

The compounds below were run on Eclipta prostrata (assay: Potted plants live body test). Conditions: Postemergence spraying; 150 g a.i./ha; 30 days; Table 9.
Format: in vivo
From the text: (§1) The raw drug which was selected from the compounds in table 1 was weighed using an analytical balance (0.0001 g), and dissolved in DMF containing 1 wt % Tween-80 emulsifier to prepare a mother liquor of raw drug with a mass concentration of 1.0˜5.0%, and then diluted with distilled water, to prepare preparations at desired concentrations according to the ratio of ingredients in Examples 8, 9 and 10.
(§2) The test targets were mustard, small quinoa, Abutilon, amaranthus retroflexus, Eclipta prostrata, crabgrass, dog point. A pot with a diameter of 7.5 cm was used, filled with composite soil (garden soil:nursery matrix, 1:2, v/v) to ¾ of the pot, then the above […] kinds of weeds targets were directly seeded (germination rate ≧85%), covered with soil at a thickness of 0.2 cm. When the weeds grew to 3-leaf stage, pre-emergence soil treatment for weeds planting, and then spraying was performed.
With `CON=C(C(=O)OC)c1ccccc1COc1cccc(-c2cccc(C)n2)c1` [Compound 85] the “efficiency, Eclipta prostrata” value was 50%.
With `CON=C(C(=O)OC)c1ccccc1COc1cccc(-c2ncc(Cl)cc2Cl)c1` [Compound 98] the “efficiency, Eclipta prostrata” value was 80%.

Same assay, conditions: Pre-emergence soil treatment; 150 g a.i./ha; 30 days; Table 9
For `CON=C(C(=O)OC)c1ccccc1COc1cccc(-c2cccc(C)n2)c1` [Compound 85], the “efficiency, Eclipta prostrata” value was 0%.
With `CON=C(C(=O)OC)c1ccccc1COc1cccc(-c2ncc(Cl)cc2Cl)c1` [Compound 98] the “efficiency, Eclipta prostrata” value was 50%.

What follows are compounds tested on Abutilon (assay: Potted plants live body test). Conditions: Postemergence spraying; 150 g a.i./ha; 30 days; Table 9.
Format: in vivo
From the text: as §1, §2
For `CON=C(C(=O)OC)c1ccccc1COc1cccc(-c2cccc(C)n2)c1` [Compound 85], the “efficiency, Abutilon” value was 50%.
For `CON=C(C(=O)OC)c1ccccc1COc1cccc(-c2ncc(Cl)cc2Cl)c1` [Compound 98], the “efficiency, Abutilon” value was 80%.

Same assay, conditions: Pre-emergence soil treatment; 150 g a.i./ha; 30 days; Table 9
`CON=C(C(=O)OC)c1ccccc1COc1cccc(-c2cccc(C)n2)c1` [Compound 85] was tested, and the “efficiency, Abutilon” value was 20%.
In the case of `CON=C(C(=O)OC)c1ccccc1COc1cccc(-c2ncc(Cl)cc2Cl)c1` [Compound 98], the “efficiency, Abutilon” value is reported as 60%.

These compounds were tested on Crabgrass (assay: Potted plants live body test). Conditions: Postemergence spraying; 150 g a.i./ha; 30 days; Table 9.
Format: in vivo
From the text: as §1, §2
With `CON=C(C(=O)OC)c1ccccc1COc1cccc(-c2cccc(C)n2)c1` [Compound 85] the “efficiency, Crabgrass” value was 0%.
For `CON=C(C(=O)OC)c1ccccc1COc1cccc(-c2ncc(Cl)cc2Cl)c1` [Compound 98], the “efficiency, Crabgrass” value was 0%.

Same assay, conditions: Pre-emergence soil treatment; 150 g a.i./ha; 30 days; Table 9
With `CON=C(C(=O)OC)c1ccccc1COc1cccc(-c2cccc(C)n2)c1` [Compound 85] the “efficiency, Crabgrass” value was 0%.
With `CON=C(C(=O)OC)c1ccccc1COc1cccc(-c2ncc(Cl)cc2Cl)c1` [Compound 98] the “efficiency, Crabgrass” value was 0%.

Each compound was assayed on Dog point (assay: Potted plants live body test). Conditions: Postemergence spraying; 150 g a.i./ha; 30 days; Table 9.
Format: in vivo
From the text: as §1, §2
For `CON=C(C(=O)OC)c1ccccc1COc1cccc(-c2cccc(C)n2)c1` [Compound 85], the “efficiency, Dog point” value was 0%.
With `CON=C(C(=O)OC)c1ccccc1COc1cccc(-c2ncc(Cl)cc2Cl)c1` [Compound 98] the “efficiency, Dog point” value was 0%.

Same assay, conditions: Pre-emergence soil treatment; 150 g a.i./ha; 30 days; Table 9
`CON=C(C(=O)OC)c1ccccc1COc1cccc(-c2cccc(C)n2)c1` [Compound 85] was tested, and the “efficiency, Dog point” value was 0%.
For `CON=C(C(=O)OC)c1ccccc1COc1cccc(-c2ncc(Cl)cc2Cl)c1` [Compound 98], the “efficiency, Dog point” value was 0%.

Each compound was assayed on amaranthus retroflexus (assay: Potted plants live body test). Conditions: Postemergence spraying; 150 g a.i./ha; 30 days; Table 9.
Format: in vivo
From the text: as §1, §2
With `CON=C(C(=O)OC)c1ccccc1COc1cccc(-c2cccc(C)n2)c1` [Compound 85] the “efficiency, amaranthus retroflexus” value was 0%.
For `CON=C(C(=O)OC)c1ccccc1COc1cccc(-c2ncc(Cl)cc2Cl)c1` [Compound 98], the “efficiency, amaranthus retroflexus” value was 80%.

Same assay, conditions: Pre-emergence soil treatment; 150 g a.i./ha; 30 days; Table 9
For `CON=C(C(=O)OC)c1ccccc1COc1cccc(-c2cccc(C)n2)c1` [Compound 85], the “efficiency, amaranthus retroflexus” value was 0%.
With `CON=C(C(=O)OC)c1ccccc1COc1cccc(-c2ncc(Cl)cc2Cl)c1` [Compound 98] the “efficiency, amaranthus retroflexus” value was 50%.

Each compound was assayed on Radish (assay: Culture dish method (general screening)). Conditions: 100 mg/L; 7 days; root.
Format: in vivo
From the text: as §3
With `CON=C(C(=O)OC)c1ccccc1COc1cccc(-c2cccc(C)n2)c1` [Compound 85] the “inhibition rate, Radish Root” value was 50%.
In the case of `CON=C(C(=O)OC)c1ccccc1COc1cccc(-c2ncc(Cl)cc2Cl)c1` [Compound 98], the “inhibition rate, Radish Root” value is reported as 50%.

Same assay, conditions: 100 mg/L; 7 days; stem
In the case of `CON=C(C(=O)OC)c1ccccc1COc1cccc(-c2cccc(C)n2)c1` [Compound 85], the “inhibition rate, Radish Stem” value is reported as 50%.
With `CON=C(C(=O)OC)c1ccccc1COc1cccc(-c2ncc(Cl)cc2Cl)c1` [Compound 98] the “inhibition rate, Radish Stem” value was 80%.

Each compound was assayed on Barnyardgrass (assay: Culture dish method (general screening)). Conditions: 100 mg/L; 7 days; root.
Format: in vivo, barnyard grass
From the text: as §3
With `CON=C(C(=O)OC)c1ccccc1COc1cccc(-c2cccc(C)n2)c1` [Compound 85] the “inhibition rate, Barnyardgrass Root” value was 80%.
For `CON=C(C(=O)OC)c1ccccc1COc1cccc(-c2ncc(Cl)cc2Cl)c1` [Compound 98], the “inhibition rate, Barnyardgrass Root” value was 60%.

Same assay, conditions: 100 mg/L; 7 days; stem
With `CON=C(C(=O)OC)c1ccccc1COc1cccc(-c2cccc(C)n2)c1` [Compound 85] the “inhibition rate, Barnyardgrass Stem” value was 0%.
`CON=C(C(=O)OC)c1ccccc1COc1cccc(-c2ncc(Cl)cc2Cl)c1` [Compound 98] was tested, and the “inhibition rate, Barnyardgrass Stem” value was 20%.

Each compound was assayed on Wheat (assay: Culture dish method (general screening)). Conditions: 100 mg/L; 7 days; root.
Format: in vivo
From the text: as §3
`CON=C(C(=O)OC)c1ccccc1COc1cccc(-c2cccc(C)n2)c1` [Compound 85] was tested, and the “inhibition rate, Wheat Root” value was 60%.
With `CON=C(C(=O)OC)c1ccccc1COc1cccc(-c2ncc(Cl)cc2Cl)c1` [Compound 98] the “inhibition rate, Wheat Root” value was 20%.

Same assay, conditions: 100 mg/L; 7 days; stem
In the case of `CON=C(C(=O)OC)c1ccccc1COc1cccc(-c2cccc(C)n2)c1` [Compound 85], the “inhibition rate, Wheat Stem” value is reported as 20%.
`CON=C(C(=O)OC)c1ccccc1COc1cccc(-c2ncc(Cl)cc2Cl)c1` [Compound 98] was tested, and the “inhibition rate, Wheat Stem” value was 0%.

These compounds were tested on Rape (assay: Culture dish method (general screening)). Conditions: 100 mg/L; 7 days; root.
Format: in vivo
From the text: as §3
In the case of `CON=C(C(=O)OC)c1ccccc1COc1cccc(-c2cccc(C)n2)c1` [Compound 85], the “inhibition rate, Rape Root” value is reported as 80%.
In the case of `CON=C(C(=O)OC)c1ccccc1COc1cccc(-c2ncc(Cl)cc2Cl)c1` [Compound 98], the “inhibition rate, Rape Root” value is reported as 50%.

Same assay, conditions: 100 mg/L; 7 days; stem
`CON=C(C(=O)OC)c1ccccc1COc1cccc(-c2cccc(C)n2)c1` [Compound 85] was tested, and the “inhibition rate, Rape Stem” value was 50%.
For `CON=C(C(=O)OC)c1ccccc1COc1cccc(-c2ncc(Cl)cc2Cl)c1` [Compound 98], the “inhibition rate, Rape Stem” value was 80%.

Each compound was assayed on broadleaf weeds such as mustard, small quinoa, Abutilon, Amaranthus retroflexus and Eclipta prostrate (assay: not given). Conditions: 150 g a.i./ha; 30 days after administration; Table 9 summary.
From the text: as §1, §2
In the case of `CON=C(C(=O)OC)c1ccccc1COc1cccc(-c2cccc(C)n2)c1` [Compound 85], the “herbicidal activity on broadleaf weeds targets” value is reported as “herbicidal activity”.
In the case of `CON=C(C(=O)OC)c1ccccc1COc1cccc(-c2ncc(Cl)cc2Cl)c1` [Compound 98], the “herbicidal activity on broadleaf weeds targets” value is reported as “herbicidal activity”.

Same assay, conditions: postemergence spraying; 150 g a.i./ha; 30 days; vs clear water control
In the case of `CON=C(C(=O)OC)c1ccccc1COc1cccc(-c2cccc(C)n2)c1` [Compound 85], the “activity on the growth of broadleaf weeds” value is reported as “inhibitory activity”.
For `CON=C(C(=O)OC)c1ccccc1COc1cccc(-c2ncc(Cl)cc2Cl)c1` [Compound 98], the “activity on the growth of broadleaf weeds” value was “inhibitory activity”.

Each compound was assayed on Small quinoa (assay: not given). Conditions: Postemergence spraying; 150 g a.i./ha; 30 days; Table 9.
From the text: as §1, §2
`CON=C(C(=O)OC)c1ccccc1COc1cccc(-c2cccc(C)n2)c1` [Compound 85] was tested, and the “efficiency, Small quinoa” value was 0%.
For `CON=C(C(=O)OC)c1ccccc1COc1cccc(-c2ncc(Cl)cc2Cl)c1` [Compound 98], the “efficiency, Small quinoa” value was 75%.

Same assay, conditions: Pre-emergence soil treatment; 150 g a.i./ha; 30 days; Table 9
In the case of `CON=C(C(=O)OC)c1ccccc1COc1cccc(-c2cccc(C)n2)c1` [Compound 85], the “efficiency, Small quinoa” value is reported as 0%.
`CON=C(C(=O)OC)c1ccccc1COc1cccc(-c2ncc(Cl)cc2Cl)c1` [Compound 98] was tested, and the “efficiency, Small quinoa” value was 45%.

What follows are compounds tested on grass weeds such as crabgrass, barnyard grass, dog point (assay: not given). Conditions: 150 g a.i./ha; 30 days after administration; Table 9 summary.
From the text: as §1, §2
In the case of `CON=C(C(=O)OC)c1ccccc1COc1cccc(-c2cccc(C)n2)c1` [Compound 85], the “activity for grass targets such as crabgrass and dog point” value is reported as “poor activity”.
For `CON=C(C(=O)OC)c1ccccc1COc1cccc(-c2ncc(Cl)cc2Cl)c1` [Compound 98], the “activity for grass targets such as crabgrass and dog point” value was “poor activity”.

Same assay, conditions: postemergence spraying; 150 g a.i./ha; 30 days
With `CON=C(C(=O)OC)c1ccccc1COc1cccc(-c2cccc(C)n2)c1` [Compound 85] the “activity on grass weeds such as crabgrass, dog point” value was “almost have no activity”.
For `CON=C(C(=O)OC)c1ccccc1COc1cccc(-c2ncc(Cl)cc2Cl)c1` [Compound 98], the “activity on grass weeds such as crabgrass, dog point” value was “almost have no activity”.

Each compound was assayed on Chinese sorghum (assay: Culture dish method (general screening)). Conditions: 100 mg/L; 7 days; root.
Format: in vivo
From the text: as §3
In the case of `CON=C(C(=O)OC)c1ccccc1COc1cccc(-c2cccc(C)n2)c1` [Compound 85], the “inhibition rate, Chinese sorghum Root” value is reported as 80%.
For `CON=C(C(=O)OC)c1ccccc1COc1cccc(-c2ncc(Cl)cc2Cl)c1` [Compound 98], the “inhibition rate, Chinese sorghum Root” value was 50%.

Same assay, conditions: 100 mg/L; 7 days; stem
In the case of `CON=C(C(=O)OC)c1ccccc1COc1cccc(-c2cccc(C)n2)c1` [Compound 85], the “inhibition rate, Chinese sorghum Stem” value is reported as 30%.
`CON=C(C(=O)OC)c1ccccc1COc1cccc(-c2ncc(Cl)cc2Cl)c1` [Compound 98] was tested, and the “inhibition rate, Chinese sorghum Stem” value was 30%.
